From ChEMBL document CHEMBL3046631, “Synthesis and Structure-Activity Relationships of Dinotefuran Derivatives: Modification in the Nitroguanidine Part” (2004)

Assays:
[1] = tested on: Nephotettix cincticeps; experiment: Insecticidal activity against 1 to 3 day-old adult Nephotettix cincticeps (green rice leafhopper) infested in compound-treated rice seedlings assessed as mortality measured after 3 days; format: functional
[2] = tested on: Laodelphax striatellus; experiment: Insecticidal activity against 1 to 3 day-old adult Laodelphax striatella (small brown planthopper) infested compound-treated rice seedlings assessed as mortality measured after 3 days; format: functional

Structure (SMILES)	LC70 [1]	LC70 [2]
CS/C(=N\[N+](=O)[O-])NCC1CCOC1 (centres undefined)	10 ppm	10 ppm
O=[N+]([O-])/N=C1\NCCN1CC1CCOC1 (racemic)	1 ppm	10 ppm
N/C(=N\[N+](=O)[O-])NCC1CCOC1 (racemic)	100 ppm	>1000 ppm
CN/C(=C\[N+](=O)[O-])NCC1CCOC1 (racemic)	0.1 ppm	0.1 ppm
CCN/C(=N\[N+](=O)[O-])NCC1CCOC1 (racemic)	10 ppm	100 ppm
CN(C)/C(=N\[N+](=O)[O-])N(C)CC1CCOC1 (racemic)	10 ppm	10 ppm
CN/C(=N\[N+](=O)[O-])N(C)CC1CCOC1 (racemic)	1 ppm	1 ppm
CN(C(=O)c1ccccc1)/C(=N\[N+](=O)[O-])N(CC1CCOC1)C(=O)c1ccccc1 (racemic)	0.1 ppm	1 ppm
CC(=O)N(C)/C(=N\[N+](=O)[O-])N(CC1CCOC1)C(C)=O (racemic)	0.1 ppm	0.1 ppm
CCN(CC1CCOC1)/C(=C/[N+](=O)[O-])NC (racemic)	10 ppm	1 ppm
CC(=O)N1CCCN(CC2CCOC2)/C1=N\[N+](=O)[O-] (racemic)	0.1 ppm	10 ppm
O=C(c1ccccc1)N1CCCN(CC2CCOC2)/C1=N\[N+](=O)[O-] (racemic)	0.1 ppm	10 ppm
CS/C(=C\[N+](=O)[O-])NCC1CCOC1 (racemic)	>1000 ppm	>1000 ppm
CS/C(=C\[N+](=O)[O-])N(C)CC1CCOC1 (racemic)	>1000 ppm	>1000 ppm
CS/C(=N\[N+](=O)[O-])N(C)CC1CCOC1 (racemic)	>1000 ppm	>1000 ppm
CCN/C(=C\[N+](=O)[O-])NCC1CCOC1 (racemic)	10 ppm	10 ppm
CCCN/C(=C\[N+](=O)[O-])NCC1CCOC1 (racemic)	100 ppm	100 ppm
C#CCN/C(=C\[N+](=O)[O-])NCC1CCOC1 (racemic)	>1000 ppm	>1000 ppm
CN/C(=C\[N+](=O)[O-])N(C)CC1CCOC1 (racemic)	1 ppm	1 ppm
CCCN(CC1CCOC1)/C(=C/[N+](=O)[O-])NC (racemic)	10 ppm	10 ppm
CN(C)/C(=C\[N+](=O)[O-])NCC1CCOC1 (racemic)	1 ppm	0.1 ppm

Structure (SMILES)	LC70 [1]	LC70 [2]
CN(C)/C(=C\[N+](=O)[O-])N(C)CC1CCOC1 (racemic)	10 ppm	1 ppm
O=[N+]([O-])/N=C(\NCc1ccccc1)NCC1CCOC1 (racemic)	>1000 ppm	>1000 ppm
CCN(CC1CCOC1)/C(=N/[N+](=O)[O-])NC (racemic)	10 ppm	10 ppm
CN(C)/C(=N\[N+](=O)[O-])NCC1CCOC1 (racemic)	0.1 ppm	1 ppm
CCN(C)/C(=N\[N+](=O)[O-])NCC1CCOC1 (racemic)	10 ppm	10 ppm
CCN(C(C)=O)/C(=N\[N+](=O)[O-])N(CC1CCOC1)C(C)=O (racemic)	10 ppm	10 ppm
COC(=O)N(C)/C(=N\[N+](=O)[O-])N(CC1CCOC1)C(=O)OC (racemic)	0.1 ppm	1 ppm
CN(Cc1ccccc1)/C(=N\[N+](=O)[O-])N(Cc1ccccc1)CC1CCOC1 (racemic)	10 ppm	10 ppm
COC(=O)N(CC1CCOC1)/C(=N/[N+](=O)[O-])N(C)C(C)=O (racemic)	0.1 ppm	1 ppm
COC(=O)N(CC1CCOC1)/C(=N/[N+](=O)[O-])N(C)Cc1ccccc1 (racemic)	0.1 ppm	1 ppm
CC(=O)N/C(=N\[N+](=O)[O-])NCC1CCOC1 (racemic)	>1000 ppm	>1000 ppm
O=C(N/C(=N\[N+](=O)[O-])NCC1CCOC1)c1ccccc1 (racemic)	>1000 ppm	>1000 ppm
COC(=O)N/C(=N\[N+](=O)[O-])NCC1CCOC1 (racemic)	10 ppm	>1000 ppm
O=[N+]([O-])/C=C1\NCCN1CC1CCOC1 (racemic)	0.1 ppm	10 ppm
O=[N+]([O-])/C=C1\NCCCN1CC1CCOC1 (racemic)	0.1 ppm	1 ppm
O=[N+]([O-])/C=C1\NCCCCN1CC1CCOC1 (racemic)	1 ppm	10 ppm
O=[N+]([O-])/N=C1\NCCCN1CC1CCOC1 (racemic)	0.1 ppm	1 ppm
O=[N+]([O-])/N=C1\NCCCCN1CC1CCOC1 (racemic)	10 ppm	100 ppm
CN1CCCN(CC2CCOC2)/C1=C/[N+](=O)[O-] (racemic)	10 ppm	10 ppm
CN1CCCN(CC2CCOC2)/C1=N/[N+](=O)[O-] (racemic)	10 ppm	100 ppm
CN/C(=N/CC1CCOC1)N[N+](=O)[O-] (centres undefined) [DINOTEFURAN]	0.1 ppm	0.1 ppm
